Measurements taken from patent US20230096766A1, “AMINO ACID HAVING FUNCTIONAL GROUP CAPABLE OF INTERMOLECULAR HYDROGEN BONDING, PEPTIDE COMPOUND CONTAINING SAME AND METHOD FOR PRODUCTION THEREOF” (Chugai Seiyaku Kabushiki Kaisha, priority 2018, published 2023).
Where a SMILES comes first, the peptide text is derived from it. Bridges are numbered along the chain shown (N, C = ends). [ ]: non-standard residue; d: D form. The star is where a group is joined. ξ: configuration not given here. NMePhe(3-Cl) = CN[C@@H](Cc1cccc(Cl)c1)C(=O)O; NMeF = CN[C@@H](Cc1ccccc1)C(=O)O; NMeI = CC[C@H](C)[C@H](NC)C(=O)O; hPhe = N[C@@H](CCc1ccccc1)C(=O)O; NMeD = CN[C@@H](CC(=O)O)C(=O)O; NMeL = CN[C@@H](CC(C)C)C(=O)O; NMeV = CN[C@H](C(=O)O)C(C)C; NMeA = CN[C@@H](C)C(=O)O; Piperidide = C1CCN(*)CC1; dNMeA = CN[C@H](C)C(=O)O; X2 = Fc1cncc(C*)c1; Bn = c1ccc(C*)cc1; ξS = NC(CO)C(=O)O; Sar = CNCC(=O)O; tBu = CC(C)(C)*

Tests used:
in vitro = settings: human, Caco-2, Caco-2 (cm/sec)

Row | SMILES | Caco-2 (Caco-2) [cm/s] | Papp (in vitro) [×10⁻⁶ cm/s] | Caco-2 (cm/sec) (Caco-2)
1 | CC(C)C[C@H]1C(=O)N[C@@H]([C@@H](C)O)C(=O)N(C)CC(=O)N(C)[C@@H](C(C)C)C(=O)N[C@@H](Cc2ccccc2)C(=O)N(C)[C@@H](Cc2cccc(Cl)c2)C(=O)N(C)[C@@H](CC(C)C)C(=O)N(C)[C@H](C(=O)N2CCCCC2)CC(=O)N(C)[C@H](C)C(=O)N[C@@H](Cc2ccccc2)C(=O)N[C@@H](COC(C)(C)C)C(=O)N1C [pd167] ([dNMeA]FS(tBu)[NMeL]T[Sar][NMeV]F[NMePhe(3-Cl)][NMeL][NMeD]-Piperidide; lactam N-11) | 1.7e-06 | 1.7 | –
2 | CC(C)C[C@H]1C(=O)N[C@@H]([C@@H](C)O)C(=O)N(C)CC(=O)N(C)[C@@H](Cc2ccccc2)C(=O)N(C)[C@@H](CC(C)C)C(=O)N[C@@H](COC(C)(C)C)C(=O)N(C)[C@@H](CC(C)C)C(=O)N[C@H](C(=O)N2CCCCC2)CC(=O)N(C)CC(=O)N(C)[C@@H](Cc2ccccc2)C(=O)N[C@@H](COCc2ccccc2)C(=O)N1C [pd177] ([Sar][NMeF]S(Bn)[NMeL]T[Sar][NMeF][NMeL]S(tBu)[NMeL]D-Piperidide; lactam N-11) | 3e-06 | 3 | –
3 | CC[C@H](C)[C@@H]1NC(=O)[C@H](Cc2ccccc2)N(C)C(=O)CN(C)C(=O)C[C@@H](C(=O)N2CCCCC2)NC(=O)[C@H]([C@@H](C)CC)N(C)C(=O)C(COCc2ccccc2)NC(=O)[C@H](CC(C)C)N(C)C(=O)[C@H](Cc2ccccc2)N(C)C(=O)CN(C)C(=O)[C@H]([C@@H](C)O)NC(=O)[C@H](CC(C)C)N(C)C1=O (stereo partly drawn) [pd178] ([Sar][NMeF]I[NMeL]T[Sar][NMeF][NMeL][ξS](Bn)[NMeI]D-Piperidide; lactam N-11) | 2.5e-06 | 2.5 | –
4 | CC(C)C[C@H]1C(=O)N[C@@H](COC(C)(C)C)C(=O)N(C)[C@@H](Cc2ccccc2)C(=O)N(C)[C@@H](C(C)C)C(=O)N[C@H](C(=O)N2CCCCC2)CC(=O)N[C@H](C(C)C)C(=O)N(C)[C@@H](Cc2ccccc2)C(=O)N[C@@H](COCc2cncc(F)c2)C(=O)N(C)[C@@H](CC(C)C)C(=O)N[C@@H]([C@@H](C)O)C(=O)N(C)CC(=O)N1C [pd180] ([dV][NMeF]S(X2)[NMeL]T[Sar][NMeL]S(tBu)[NMeF][NMeV]D-Piperidide; lactam N-11) | – | 2.4 | 2 4E−06 cm/sec
5 | CC[C@H](C)[C@H]1C(=O)N[C@@H]([C@@H](C)O)C(=O)N(C)CC(=O)N(C)[C@@H](CC(C)C)C(=O)N[C@H](C(=O)N2CCCCC2)CC(=O)N(C)[C@@H](C(C)C)C(=O)N[C@@H](COCc2cncc(F)c2)C(=O)N(C)[C@@H](CC(C)C)C(=O)N(C)[C@@H](Cc2ccccc2)C(=O)N[C@@H](CC(C)C)C(=O)N(C)[C@@H](Cc2ccccc2)C(=O)N1C [pd181] ([NMeV]S(X2)[NMeL][NMeF]L[NMeF][NMeI]T[Sar][NMeL]D-Piperidide; lactam N-11) | 1.1e-06 | 1.1 | –
6 | CC(C)C[C@H]1C(=O)N(C)[C@@H](Cc2ccccc2)C(=O)N[C@H](C(=O)N2CCCCC2)CC(=O)N(C)[C@@H](C(C)C)C(=O)N[C@@H](C)C(=O)N(C)[C@@H](Cc2ccccc2)C(=O)N(C)[C@@H](CC(C)C)C(=O)N(C)CC(=O)N[C@@H]([C@@H](C)O)C(=O)N(C)[C@@H](C(C)C)C(=O)N[C@@H](CCc2ccccc2)C(=O)N1C [pd182] ([NMeV]A[NMeF][NMeL][Sar]T[NMeV][hPhe][NMeL][NMeF]D-Piperidide; lactam N-11) | 2.6e-06 | 2.6 | –
7 | CC(C)C[C@H]1C(=O)N(C)[C@@H](Cc2ccccc2)C(=O)N[C@@H](COC(C)(C)C)C(=O)N(C)[C@@H](C)C(=O)N[C@H](C(=O)N2CCCCC2)CC(=O)N(C)[C@@H](C)C(=O)N(C)[C@@H](Cc2ccccc2)C(=O)N[C@@H](CCc2ccccc2)C(=O)N(C)[C@@H](CC(C)C)C(=O)N[C@@H]([C@@H](C)O)C(=O)N(C)CC(=O)N1C [pd183] ([NMeA][NMeF][hPhe][NMeL]T[Sar][NMeL][NMeF]S(tBu)[NMeA]D-Piperidide; lactam N-11) | 2.1e-06 | 2.1 | –
